± gives the expanded uncertainty stated by the source.
How the values were obtained:
[1] = for surface tension liquid-gas: wilhelmi plate; for viscosity / speed of sound / mass density: 100 kPa, Liquid; for viscosity: Capillary tube (Ostwald / Ubbelohde) method; for speed of sound: Frequency=3 MHz, Sing-around technique in a fixed-path interferometer; for mass density: Vibrating tube method
[2] = xn = mol fraction of the nth substance listed; conditions: for surface tension liquid-gas: wilhelmi plate; for viscosity / speed of sound / mass density: 100 kPa, Liquid; for viscosity: Capillary tube (Ostwald / Ubbelohde) method; for speed of sound: Frequency=3 MHz, Sing-around technique in a fixed-path interferometer; for mass density: Vibrating tube method

CN(C)CCO [2-(N,N-dimethylamino)ethanol] showed a surface tension liquid-gas ([1]; 298.15 K) of 31.3 ± 0.4 mN/m, a viscosity ([1]; 298.15 K) of 3.69 ± 0.42 mPa·s and a speed of sound ([1]; 298.15 K) of 1335.9 ± 2.5 m/s. For the same compound, the mass density ([1]; 298.15 K) was 882.8 ± 2.1 kg/m3.
For NCCO [2-aminoethan-1-ol], the surface tension liquid-gas ([1]; 298.15 K) was 49.1 ± 0.4 mN/m, the viscosity ([1]; 298.15 K) was 18.74 ± 4.7 mPa·s and the speed of sound ([1]; 298.15 K) was 1719.2 ± 1.9 m/s. The mass density ([1]; 298.15 K) was 1012 ± 2 kg/m3.
CN(C)CCN [2-dimethylamino-1-ethylamine] gave a surface tension liquid-gas ([1]; 293.15 K) of 26.4 ± 0.4 mN/m, a viscosity ([1]; 293.15 K) of 0.988 ± 0.075 mPa·s and a speed of sound ([1]; 293.15 K) of 1319.6 ± 2.5 m/s. It also gave a mass density ([1]; 293.15 K) of 819 ± 2 kg/m3, a surface tension liquid-gas ([1]; 298.15 K) of 26.1 ± 0.4 mN/m and a viscosity ([1]; 298.15 K) of 0.895 ± 0.068 mPa·s. For the same compound, the speed of sound ([1]; 298.15 K) was 1300.8 ± 2.5 m/s, the mass density ([1]; 298.15 K) was 814.3 ± 2.1 kg/m3 and the surface tension liquid-gas ([1]; 303.15 K) was 25.8 ± 0.4 mN/m. It also gave a viscosity ([1]; 303.15 K) of 0.819 ± 0.054 mPa·s, a speed of sound ([1]; 303.15 K) of 1279.3 ± 2.5 m/s and a mass density ([1]; 303.15 K) of 810 ± 2 kg/m3. It also gave a surface tension liquid-gas ([1]; 313.15 K) of 25.2 ± 0.4 mN/m, a viscosity ([1]; 313.15 K) of 0.693 ± 0.045 mPa·s and a speed of sound ([1]; 313.15 K) of 1239 ± 2.5 m/s. For the same compound, the mass density ([1]; 313.15 K) was 801 ± 2 kg/m3, the surface tension liquid-gas ([1]; 323.15 K) was 24.5 ± 0.4 mN/m and the viscosity ([1]; 323.15 K) was 0.596 ± 0.039 mPa·s. The speed of sound ([1]; 323.15 K) was 1199.3 ± 2.5 m/s and the mass density ([1]; 323.15 K) was 791 ± 2 kg/m3.
In the case of CN(C)CCN [2-dimethylamino-1-ethylamine] + NCCO, the surface tension liquid-gas ([2]; 293.15 K, x1 = 0.5) is reported as 32.4 ± 0.4 mN/m, the viscosity ([2]; 293.15 K, x1 = 0.5) is reported as 10.74 ± 0.095 mPa·s and the speed of sound ([2]; 293.15 K, x1 = 0.5) is reported as 1498.1 ± 2.2 m/s. For the same compound, the mass density ([2]; 293.15 K, x1 = 0.5) was 941 ± 2 kg/m3, the surface tension liquid-gas ([2]; 303.15 K, x1 = 0.5) was 31.6 ± 0.4 mN/m and the viscosity ([2]; 303.15 K, x1 = 0.5) was 7.169 ± 0.065 mPa·s. For the same compound, the speed of sound ([2]; 303.15 K, x1 = 0.5) was 1463.7 ± 2.2 m/s, the mass density ([2]; 303.15 K, x1 = 0.5) was 932 ± 2 kg/m3 and the surface tension liquid-gas ([2]; 313.15 K, x1 = 0.5) was 30.9 ± 0.4 mN/m. The viscosity ([2]; 313.15 K, x1 = 0.5) was 5.066 ± 0.047 mPa·s, the speed of sound ([2]; 313.15 K, x1 = 0.5) was 1428.9 ± 2.2 m/s and the mass density ([2]; 313.15 K, x1 = 0.5) was 924 ± 2 kg/m3. The surface tension liquid-gas ([2]; 323.15 K, x1 = 0.5) was 30.3 ± 0.4 mN/m, the viscosity ([2]; 323.15 K, x1 = 0.5) was 3.517 ± 0.033 mPa·s and the speed of sound ([2]; 323.15 K, x1 = 0.5) was 1394.1 ± 2.2 m/s. The mass density ([2]; 323.15 K, x1 = 0.5) was 916 ± 2 kg/m3.
Compound O [water] has a surface tension liquid-gas ([1]; 293.15 K) of 72.6 ± 0.3 mN/m, a viscosity ([1]; 293.15 K) of 0.993 ± 0.082 mPa·s and a mass density ([1]; 293.15 K) of 998 ± 2 kg/m3. For the same compound, the surface tension liquid-gas ([1]; 298.15 K) was 72.1 ± 0.3 mN/m, the viscosity ([1]; 298.15 K) was 0.891 ± 0.079 mPa·s and the surface tension liquid-gas ([1]; 303.15 K) was 71.1 ± 0.3 mN/m. It also gave a viscosity ([1]; 303.15 K) of 0.797 ± 0.063 mPa·s, a mass density ([1]; 303.15 K) of 996 ± 2 kg/m3 and a surface tension liquid-gas ([1]; 313.15 K) of 69.2 ± 0.3 mN/m. The viscosity ([1]; 313.15 K) was 0.654 ± 0.05 mPa·s, the speed of sound ([1]; 313.15 K) was 1529.1 ± 1.6 m/s and the mass density ([1]; 313.15 K) was 992 ± 2 kg/m3. The surface tension liquid-gas ([1]; 323.15 K) was 67.7 ± 0.3 mN/m, the viscosity ([1]; 323.15 K) was 0.547 ± 0.043 mPa·s and the mass density ([1]; 323.15 K) was 988 ± 2 kg/m3.
With O [water] + CN(C)CCN the surface tension liquid-gas ([2]; 293.15 K, x2 = 0) was 72.6 ± 0.6 mN/m, the viscosity ([2]; 293.15 K, x2 = 0) was 0.993 ± 0.006 mPa·s and the mass density ([2]; 293.15 K, x2 = 0) was 998 ± 2 kg/m3. For the same compound, the surface tension liquid-gas ([2]; 303.15 K, x2 = 0) was 71.1 ± 0.6 mN/m, the viscosity ([2]; 303.15 K, x2 = 0) was 0.797 ± 0.005 mPa·s and the mass density ([2]; 303.15 K, x2 = 0) was 996 ± 2 kg/m3. The surface tension liquid-gas ([2]; 313.15 K, x2 = 0) was 69.2 ± 0.6 mN/m, the viscosity ([2]; 313.15 K, x2 = 0) was 0.654 ± 0.005 mPa·s and the speed of sound ([2]; 313.15 K, x2 = 0) was 1529.1 ± 1.6 m/s. The mass density ([2]; 313.15 K, x2 = 0) was 992 ± 2 kg/m3, the surface tension liquid-gas ([2]; 323.15 K, x2 = 0) was 67.7 ± 0.6 mN/m and the viscosity ([2]; 323.15 K, x2 = 0) was 0.547 ± 0.004 mPa·s. It also gave a mass density ([2]; 323.15 K, x2 = 0) of 988 ± 2 kg/m3.
